As to `CCCN(CCC)C(=O)c1cc(C)cc(C(=O)N[C@@H](Cc2cc(F)cc(F)c2)[C@@H](O)CCN)c1` [Example 1, 5-amino-1,2,4,5-tetradeoxy-1-(3,5-difluorophenyl)-2-({3-[(dipropylamino)carbonyl]-5-methylbenzoyl}amino)-L-threo-pentitol], the melting point is 61 to 72 °C.

The melting point is the temperature, or range, at which the solid turns liquid.
